# Patent US20250041303A1, “COMBINATION THERAPY FOR CANCER TREATMENT” (INSTITUTE FOR CANCER RESEARCH D/B/A THE RESEARCH INSTITUTE …, priority 2021, published 2025)
# Tests used:
# KRASG12C = target: T1, KRASG12C (Homo sapiens, UniProt P01116, G12C); experiment: Western blot of KRASG12C and effector signaling in SW1463 cells; format: cell-based; settings: for PROTAC-mediated degradation of KRASG12C on combining with LC-2 / phosphorylation of MEK and ERK on combining with LC-2: lapatinib 5 μM or tariquidar 0.01 μM
# T1 construct: endogenous in cells; host or cells: SW1463
# Protocol: (§2) Samples were harvested in MIB lysis buffer (50 mM HEPES (pH 7.5), 0.5% Triton X-100, 150 mM NaCl, 1 mM EDTA, 1 mM EGTA, 10 mM sodium fluoride, 2.5 mM sodium orthovanadate, 1× protease inhibitor cocktail (Roche), and 1% each of phosphatase inhibitor cocktails 2 and 3 (Sigma)). Particulate was removed by centrifugation of lysates at 21,000 rpm for 15 minutes at 4° C. Lysates were subjected to SDS-PAGE chromatography and transferred to PVDF membranes before western blotting with primary antibodies. […] Secondary HRP-anti-rabbit and HRP-anti-mouse were obtained from ThermoFisher Scientific. SuperSignal West Pico and Femto Chemiluminescent Substrates (Thermo) were used to visualize blots.
# [1] = system: SW1463 or SW837 KRASG12C cells; experiment: Colony formation assay (14 days) in KRASG12C CRC cells; settings: 1 μM
# CDK9 [2] = target: T2, CDK9 (Homo sapiens, UniProt P50750); experiment: Western blot of CDK9 degradation, A1847 parental vs Thal-R cells; format: cell-based
# Protocol: as §2
# MDR1 (ABCB1) = experiment: Single-run proteomics (LC-MS/MS, label-free quantitation) of degrader-resistant cells; format: cell-based, human; settings: A1847 cells chronically exposed to the degrader (degrader-R) vs parental
# Protocol: To determine changes in cells chronically exposed to BET or CDK9 PROTACs, we performed single-run proteome analysis as previously described (Lai et al., Front. Oncol., 2020, 10, 2336). Briefly, WT or PROTAC-R cells were lysed in 50 mM HEPES pH 8.0+4% SDS, and 100 μg of proteins were digested using LysC and trypsin. Digested peptides were isolated using C-18 and PGC columns, then dried and cleaned with ethyl acetate. Three […] peptides were analyzed using LC-MS/MS. MaxQuant normalized LFQ values were imported into Perseus software (1.6.2.3) and filtered in the following manner: kinases identified by site only were removed, reverse, or potential contaminant were removed then filtered for kinases identified by >1 unique peptide. Protein LFQ values were log 2 transformed, filtered for a minimum valid number of 3, normalized using Z-scores, annotated, and subjected to a Student's t-test with comparing […]. […]
# Proteolytic peptides were resuspended in 0.1% formic acid and separated with a Thermo Scientific RSLC nano Ultimate 3000 LC on a Thermo Scientific Easy-Spray C18 PepMap 75 μm×50 cm C-18 2 μm column. […] Eluted peptides were analyzed by Thermo Scientific Q Exactive or Q Exactive plus mass spectrometers utilizing a top 15 methodology in which the 15 most intense peptide precursor ions were subjected to fragmentation. […]
# Raw data analysis of LFQ experiments was performed using MaxQuant software 1.6.1.0 and searched using Andromeda 1.5.6.0 against the Swiss-Prot human protein database (downloaded on Apr. 24, 2019, 20402 entries). […] LFQ quantitation was performed using MaxQuant with the following parameters; LFQ minimum ratio count: Global parameters for protein quantitation were as follows: label minimum ratio count: 1, peptides used for quantitation: unique, only use modified proteins selected and with normalized average ratio estimation selected. Match between runs was employed for LFQ quantitation and the significance threshold of the ion score was calculated based on a false discovery rate of <1%.
# [3] = system: A1847 Parental or dBET6-R cells; experiment: Western blot for cross-resistance to other PROTACs; format: cell-based; settings: A1847 dBET6-R vs parental; 1 μM, 24 hours
# CDK9 [4] = target: T2, CDK9; experiment: Western blot of CDK9 degradation in DLD-1 cells; format: cell-based; design: endogenous in cells; host or cells: DLD-1; settings: 4 hours
# Protocol: as §2
# [5] = system: A1847 and SUM159 parental and degrader-resistant cells; experiment: CellTiter-Glo cell viability, parental vs degrader-resistant cells; settings: for sensitivity of degrader-resistant cells vs parental cells (cell viability): increasing concentrations, A1847 dBET6-R, Thal-R, MZ1-R and SUM159 MZ1-R
# [6] = system: HCT-15, DLD-1 and CAKI-1 cells (MDR1 overexpressing); experiment: CellTiter-Glo cell viability of MDR1 overexpressing vs low MDR1 cancer cell lines; settings: HCT-15, DLD-1, CAKI-1 vs A1847, SUM159, MOLT4; escalating doses, 5 days
# [7] = system: BET proteins (BRD2, BRD3 or BRD4); experiment: Western blot of BET protein degradation, parental vs degrader-resistant cells; format: cell-based
# Protocol: as §2
# BRD4 (BET proteins) = target: T3, BRD4 (BET proteins) (Homo sapiens, UniProt O60885); experiment: Western blot of BET protein/BRD4 degradation in DLD-1 cells; format: cell-based; settings: 4 hours
# T3 construct: endogenous in cells; host or cells: DLD-1
# Protocol: as §2
# [8] = system: ERBB3 and downstream AKT signaling; experiment: Western blot of MEKi-induced ERBB3/AKT signaling in LS513 cells; format: cell-based; design: dose or concentration left out as unconfirmed; settings: LS513, 48 hours
# Protocol: as §2
# LS513 xenografts = experiment: Tumor xenograft experiment; format: in vivo, nude mice; settings: MS934 50 mg/kg intraperitoneal daily, lapatinib 100 mg/kg oral gavage daily, or the combination; two weeks
# Protocol: Animal studies were conducted in accordance with the guidelines set forth by the Institutional Animal Care and Use Committee. 1×10^6 LS513 cells were prepared in growth factor reduced Matrigel (Corning) 1:1 and injected into the right flank of 6- to 8-weeks old nude mice. […] For in vivo studies, MS934 was resuspended in 5% N-methyl-2-pyrrolidinone (NMP), 5% Kolliphor HS-15 (sigma) and 90% saline; and delivered by intraperitoneal injection (daily). […] Tumor volumes were evaluated every two days using a caliper and the volume was calculated applying the following formula: [(width)^2×(length)]/2.
# [9] = system: A1847 dBET6-R or Thal-R cells; experiment: Apoptosis by western blot in degrader-resistant A1847 cells; format: cell-based; settings: 2 μM, 4 hours
# Protocol: as §2
# MDR1 [10] = target: T4, MDR1 (Homo sapiens, UniProt P08183); experiment: Rhodamine 123 efflux assay in DLD-1 cells; format: cell-based; design: endogenous in cells; settings: 2 μM
# Protocol: (§1) Efflux assay was performed according to manufacturer's protocol (Millipore Sigma #ECM910). Cells were resuspended in cold efflux buffer and incubated with Rhodamine 123 for 1 hour on ice. Cells were centrifuged and treated in warm efflux buffer with DMSO or drug for 30-60 minutes, washed with cold PBS, and effluxed dye was quantified with a plate reader at an excitation wavelength of 485 nm and an emission wavelength of 530 nm.
# MDR1 [11] = target: T4, MDR1; experiment: Rhodamine 123 efflux assay in LS513 cells; format: cell-based; design: endogenous in cells; settings: 2 μM
# Protocol: as §1, with “Cells were resuspended in cold efflux buffer and incubated with Rhodamine 123 for 1 hour on ice.” left out
# DLD-1 cells = experiment: Colony formation assay (14 days) in DLD-1 cells
# MDR1 [12] = target: T4, MDR1; experiment: Rhodamine 123 efflux assay in degrader-resistant cells; format: cell-based; design: endogenous in cells; host or cells: A1847 parental, dBET6-R, Thal-R; SUM159 parental, MZ1-R
# Protocol: as §1
# SW1463 cells = experiment: CellTiter-Glo viability with Bliss drug synergy analysis in SW1463 cells; format: cell-based
# A1847 or SUM159 cells = experiment: Colony formation assay (14 days, crystal violet); settings: SUM159 cells expressing Flag-MDR1, MZ1 0.1 μM, with or without tariquidar 0.1 μM
# [13] = system: OVCAR3, HCT116, and MOLT4 cells; experiment: CellTiter-Glo cell viability, parental vs MZ1 chronically exposed cells; settings: MZ1-R OVCAR3 and HCT116 vs parental
# SW837 cells = experiment: CellTiter-Glo viability with Bliss drug synergy analysis in SW837 cells
# T4 sequence (P08183 whole entry): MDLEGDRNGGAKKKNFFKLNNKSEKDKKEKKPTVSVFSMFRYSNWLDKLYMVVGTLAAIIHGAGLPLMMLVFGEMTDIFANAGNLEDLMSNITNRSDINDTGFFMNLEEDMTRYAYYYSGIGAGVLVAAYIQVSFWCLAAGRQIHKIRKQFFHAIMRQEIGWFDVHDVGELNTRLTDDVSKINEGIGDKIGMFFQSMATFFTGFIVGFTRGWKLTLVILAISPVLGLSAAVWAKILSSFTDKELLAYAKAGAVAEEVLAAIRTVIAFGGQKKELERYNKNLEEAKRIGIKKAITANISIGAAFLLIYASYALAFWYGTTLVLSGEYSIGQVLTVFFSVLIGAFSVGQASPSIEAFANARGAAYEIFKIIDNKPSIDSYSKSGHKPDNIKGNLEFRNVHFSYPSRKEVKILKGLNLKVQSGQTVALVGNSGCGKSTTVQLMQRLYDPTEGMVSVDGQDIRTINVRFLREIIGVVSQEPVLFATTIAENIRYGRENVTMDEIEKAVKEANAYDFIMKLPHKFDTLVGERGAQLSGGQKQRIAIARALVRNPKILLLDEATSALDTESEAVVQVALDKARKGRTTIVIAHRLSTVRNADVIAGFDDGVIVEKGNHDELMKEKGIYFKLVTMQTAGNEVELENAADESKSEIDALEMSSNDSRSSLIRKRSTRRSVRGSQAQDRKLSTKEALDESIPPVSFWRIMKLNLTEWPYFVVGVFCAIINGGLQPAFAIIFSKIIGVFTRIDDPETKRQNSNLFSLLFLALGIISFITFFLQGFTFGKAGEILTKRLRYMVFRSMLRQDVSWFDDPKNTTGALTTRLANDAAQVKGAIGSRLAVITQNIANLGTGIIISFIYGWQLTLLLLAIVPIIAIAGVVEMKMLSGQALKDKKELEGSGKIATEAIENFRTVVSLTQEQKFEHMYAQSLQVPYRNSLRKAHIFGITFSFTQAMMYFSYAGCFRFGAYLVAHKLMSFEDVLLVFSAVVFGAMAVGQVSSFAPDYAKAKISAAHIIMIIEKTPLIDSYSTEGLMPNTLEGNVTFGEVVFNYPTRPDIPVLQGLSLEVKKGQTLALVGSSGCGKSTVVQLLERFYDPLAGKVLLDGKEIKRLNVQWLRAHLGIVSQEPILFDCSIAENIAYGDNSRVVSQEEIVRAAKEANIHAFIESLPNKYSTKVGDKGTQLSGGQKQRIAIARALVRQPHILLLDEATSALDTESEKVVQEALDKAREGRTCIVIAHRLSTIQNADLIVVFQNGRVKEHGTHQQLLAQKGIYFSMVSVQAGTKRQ
# T2 sequence (P50750 whole entry): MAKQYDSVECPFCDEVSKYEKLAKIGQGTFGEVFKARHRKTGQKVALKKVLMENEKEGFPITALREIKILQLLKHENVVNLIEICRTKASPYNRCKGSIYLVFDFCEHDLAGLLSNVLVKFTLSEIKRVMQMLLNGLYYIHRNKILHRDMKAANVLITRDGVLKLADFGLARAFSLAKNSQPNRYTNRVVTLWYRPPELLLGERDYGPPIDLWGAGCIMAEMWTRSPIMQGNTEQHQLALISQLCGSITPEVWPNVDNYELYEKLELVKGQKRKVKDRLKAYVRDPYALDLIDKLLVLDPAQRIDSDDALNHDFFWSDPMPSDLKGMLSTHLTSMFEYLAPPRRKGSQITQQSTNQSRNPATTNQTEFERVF
# T2 sequence (O60563 whole entry partner): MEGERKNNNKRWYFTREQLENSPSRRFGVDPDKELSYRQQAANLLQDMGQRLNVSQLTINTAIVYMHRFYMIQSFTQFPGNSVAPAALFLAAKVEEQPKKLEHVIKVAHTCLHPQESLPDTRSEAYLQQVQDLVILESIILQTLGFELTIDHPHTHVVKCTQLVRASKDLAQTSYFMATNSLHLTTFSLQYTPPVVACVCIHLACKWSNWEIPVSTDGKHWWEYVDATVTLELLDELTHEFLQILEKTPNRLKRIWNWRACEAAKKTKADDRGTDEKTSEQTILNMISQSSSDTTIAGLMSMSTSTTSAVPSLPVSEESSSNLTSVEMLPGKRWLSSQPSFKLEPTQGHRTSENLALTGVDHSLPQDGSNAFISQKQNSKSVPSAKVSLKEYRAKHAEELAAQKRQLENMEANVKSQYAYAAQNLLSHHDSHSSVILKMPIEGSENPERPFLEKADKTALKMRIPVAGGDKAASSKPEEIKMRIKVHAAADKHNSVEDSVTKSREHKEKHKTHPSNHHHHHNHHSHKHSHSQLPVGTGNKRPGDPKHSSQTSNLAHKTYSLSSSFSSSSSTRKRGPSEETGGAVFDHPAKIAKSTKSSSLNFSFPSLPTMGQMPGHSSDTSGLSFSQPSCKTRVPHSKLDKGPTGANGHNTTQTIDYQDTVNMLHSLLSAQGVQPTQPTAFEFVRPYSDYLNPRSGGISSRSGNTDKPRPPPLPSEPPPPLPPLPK
compound,measurement,setting,value
C=C(F)C(=O)N1CCN(c2nc(OC[C@@H]3CCCN3CCCOCCC(=O)N[C@H](C(=O)N3C[C@H](O)C[C@H]3C(=O)NCc3ccc(-c4scnc4C)cc3)C(C)(C)C)nc3c2CCN(c2cccc4cccc(Cl)c24)C3)C[C@@H]1CC#N [LC-2],"KRASG12C protein levels, single agent","KRASG12C; SW1463 cells, 1 μM",had no impact on KRASG12C protein levels
same,sensitivity (colony formation),[1],intrinsic resistance
CC(C)(C)c1cnc(CSc2cnc(NC(=O)C3CCN(CC(=O)NCCOCCOCCOCCNc4cccc5c4C(=O)N(C4CCC(=O)NC4=O)C5=O)CC3)s2)o1 (stereo not drawn) [Thal SNS 032],CDK9 protein levels and phosphorylation of RNA polymerase (S2),"CDK9 [2]; chronically exposed A1847 cells vs parental, increasing doses, 24 hours",did not inhibit cell viability or reduce CDK9 protein levels
same,MDR1 protein levels upregulated relative to parental cell lines by LFQ analysis,MDR1 (ABCB1),~2.5 fold
same,cross-resistance to PROTACs targeting other proteins,[3],cross-resistant
same,reduction of intended degrader target (CDK9),"CDK9 [4]; DLD-1, single agent, escalating doses, vs A1847 or MOLT4",did not reduce the intended degrader target to the extent observed with degrader-sensitive A1847 or MOLT4 cells
same,degradation efficiency of CDK9 on co-treatment with tariquidar,"CDK9 [4]; DLD-1, increasing doses plus tariquidar 0.1 μM",improved the degradation efficiency
same,acquired resistance (cell viability dose-response),"[5]; A1847 parental vs chronically exposed cells, escalating doses, 5 days",acquire resistance
same,cell viability of MDR1 overexpressing cells,[6],did not reduce cell viability to the extent of cancer cell lines expressing low or no detectable MDR1 protein
CS(=O)(=O)CCNCc1ccc(-c2ccc3ncnc(Nc4ccc(OCc5cccc(F)c5)c(Cl)c4)c3c2)o1 [lapatinib],degradation of BET proteins in degrader-resistant cell lines,"[7]; A1847 dBET6-R or MZ1-R vs parental, 2 μM, 4 hours",resulted in degradation of BET proteins
same,degradation of CDK9 in degrader-resistant cell lines,"CDK9 [2]; A1847 Thal-R vs parental, 2 μM, 4 hours","resulted in degradation of BET proteins (FIG. 5, Panel G; FIG. 12, Panels E and F) or CDK9"
same,reduction in concentrations of dBET6 required to degrade BRD4 when combined,BRD4 (BET proteins); combined with the compound at 2 μM,100 fold
same,dBET6-mediated degradation of BRD4 on combined treatment,BRD4 (BET proteins); increasing doses of dBET6 plus the compound at 2 μM,improved dBET6-mediated degradation of BRD4
same,MEK inhibitor-induced ERBB3 and downstream AKT and RAF signaling,[8],could be blocked by lapatinib treatment
same,tumor growth (tumor volume),LS513 xenografts,ineffective
same,PROTAC-mediated degradation of KRASG12C on combining with LC-2,"KRASG12C; SW1463, 48 hours",improved PROTAC-mediated degradation of KRASG12C reducing protein levels
same,phosphorylation of MEK and ERK on combining with LC-2,"KRASG12C; SW1463, 48 hours",reduced phosphorylation of MEK and ERK
same,CRAF and AKT phosphorylation and apoptosis on combining with LC-2,"KRASG12C; SW1463, lapatinib 5 μM, 48 hours","uniquely reduced CRAF and AKT phosphorylation, as well as induced apoptosis"
same,apoptosis in degrader-resistant cell lines,[9],resulted in apoptosis similar to tariquidar treatment
same,MDR1 drug efflux activity (Rhodamine 123 efflux),MDR1 [10],reduced MDR1 drug efflux activity similar to tariquidar-treatment
same,MDR1 drug efflux activity (Rhodamine 123 efflux),MDR1 [11],reduced MDR1 drug efflux activity similar to tariquidar
same,degradation of CDK9 by Thal SNS 032 on combined treatment,"CDK9 [4]; DLD-1, increasing doses of Thal SNS 032 plus the compound at 2 μM",improving degradation of CDK9
same,growth inhibition of colonies on combination with Thal SNS 032,"DLD-1 cells; compound at 2 μM, 14 days",enhancing growth inhibition of colonies
same,colony formation on co-treatment with dBET6,"DLD-1 cells; dBET6 0.1 μM plus the compound at 2 μM, 14-day period",sensitized DLD-1 cells to dBET6
same,sensitivity of degrader-resistant cells vs parental cells (cell viability),[5],more sensitive
same,MDR1 drug efflux activity (Rhodamine 123 efflux),"MDR1 [12]; A1847 dBET6-R or Thal-R cell lines, 2 μM",reduced MDR1 drug efflux activity similar to that observed with tariquidar
COc1cc2c(cc1OC)CN(CCc1ccc(NC(=O)c3cc(OC)c(OC)cc3NC(=O)c3cnc4ccccc4c3)cc1)CC2 [tariquidar],degradation of BET proteins in degrader-resistant cells on MDR1 inhibition,"[7]; tariquidar 0.1 μM, 24 hours, A1847 dBET6-R, SUM159 MZ1-R (maintained in PROTAC)",restored degradation of BET proteins or CDK9
same,degradation of CDK9 in degrader-resistant cells on MDR1 inhibition,"CDK9 [2]; tariquidar 0.1 μM, 24 hours, A1847 Thal-R",restored degradation of BET proteins or CDK9
same,PROTAC-mediated degradation of KRASG12C on combining with LC-2,"KRASG12C; SW1463, 48 hours",improved PROTAC-mediated degradation of KRASG12C reducing protein levels
same,phosphorylation of MEK and ERK on combining with LC-2,"KRASG12C; SW1463, 48 hours",reduced phosphorylation of MEK and ERK
same,drug synergy with LC-2,SW1463 cells,marginal synergy
same,colony formation with forced expression of Flag-MDR1,A1847 or SUM159 cells,could be blocked by tariquidar-treatment
same,sensitivity of degrader-resistant cells vs parental cells (cell viability),[5],more sensitive
same,sensitivity of MZ1-resistant cells (cell viability),[13],increased sensitivity
same,drug synergy with LC-2,SW837 cells,marginal synergy
same,MDR1 drug efflux pump activity (efflux of Rhodamine 123),"MDR1 [12]; A1847 dBET6-R, Thal-R or MZ1-R SUM159 cells compared to parental cells",reduced MDR1 drug efflux pump activity
